Laboratory results: ChEMBL document CHEMBL4813981, “Synthesis and in vitro antibacterial activity of new aminothiazole-oximepiperidone cephalosporins” (2021)

Tests used:
Assay type in all cases: functional
Klebsiella pneumoniae [1] = test: Antibacterial activity against Carbapenem- sensitive Klebsiella pneumoniae 17-6 overexpressing extended spectrum beta-lactamases assessed as reduction in bacterial growth
Enterobacter cloacae [2] = test: Antibacterial activity against Enterobacter cloacae 17-8 assessed as reduction in bacterial growth
Escherichia coli [3] = test: Antibacterial activity against ESBLs positive Carbapenem-sensitive Escherichia coli 17-14 assessed as reduction in bacterial growth
Escherichia coli [4] = test: Antibacterial activity against ESBLs negative Carbapenem-sensitive Escherichia coli 17-9 assessed as reduction in bacterial growth
Klebsiella aerogenes [5] = test: Antibacterial activity against Enterobacter aerogenes 17-4 assessed as reduction in bacterial growth
Klebsiella pneumoniae [6] = test: Antibacterial activity against Carbapenem- sensitive Klebsiella pneumoniae 17-2 overexpressing extended spectrum beta-lactamases assessed as reduction in bacterial growth
Pseudomonas aeruginosa [7] = test: Antibacterial activity against Carbapenem- sensitive Pseudomonas aeruginosa 17-7 assessed as reduction in bacterial growth
Klebsiella pneumoniae [8] = test: Antibacterial activity against Carbapenem- sensitive Klebsiella pneumoniae 17-12 overexpressing extended spectrum beta-lactamases assessed as reduction in bacterial growth
Enterobacter cloacae [9] = test: Antibacterial activity against Enterobacter cloacae 17-5 assessed as reduction in bacterial growth
Escherichia coli [10] = test: Antibacterial activity against ESBLs positive Carbapenem-sensitive Escherichia coli 17-17 assessed as reduction in bacterial growth
Escherichia coli [11] = test: Antibacterial activity against ESBLs positive Carbapenem-sensitive Escherichia coli 17-6 assessed as reduction in bacterial growth
Escherichia coli [12] = test: Antibacterial activity against ESBLs positive Carbapenem-sensitive Escherichia coli 17-18 assessed as reduction in bacterial growth
Klebsiella pneumoniae [13] = test: Antibacterial activity against Carbapenem- sensitive Klebsiella pneumoniae 17-8 overexpressing extended spectrum beta-lactamases assessed as reduction in bacterial growth
Klebsiella pneumoniae [14] = test: Antibacterial activity against ESBLs negative Carbapenem-sensitive Klebsiella pneumoniae 17-18 assessed as reduction in bacterial growth
Escherichia coli [15] = test: Antibacterial activity against ESBLs positive Carbapenem-sensitive Escherichia coli 17-10 assessed as reduction in bacterial growth
Pseudomonas aeruginosa [16] = test: Antibacterial activity against Carbapenem- resistant Pseudomonas aeruginosa 17-1 assessed as reduction in bacterial growth
Pseudomonas aeruginosa [17] = test: Antibacterial activity against Carbapenem- sensitive Pseudomonas aeruginosa 17-26 assessed as reduction in bacterial growth
Klebsiella pneumoniae [18] = test: Antibacterial activity against Carbapenem- sensitive Klebsiella pneumoniae 17-15 overexpressing extended spectrum beta-lactamases assessed as reduction in bacterial growth
Klebsiella pneumoniae [19] = test: Antibacterial activity against Carbapenem- resistant Klebsiella pneumoniae KR 15-7 assessed as reduction in bacterial growth
Pseudomonas aeruginosa [20] = test: Antibacterial activity against Carbapenem- sensitive Pseudomonas aeruginosa 17-24 assessed as reduction in bacterial growth
Enterobacter cloacae [21] = test: Antibacterial activity against Enterobacter cloacae 17-4 assessed as reduction in bacterial growth
Escherichia coli [22] = test: Antibacterial activity against ESBLs negative Carbapenem-sensitive Escherichia coli 17-1 assessed as reduction in bacterial growth
Klebsiella aerogenes [23] = test: Antibacterial activity against Enterobacter aerogenes 17-1 assessed as reduction in bacterial growth
Escherichia coli [24] = test: Antibacterial activity against ESBLs positive Carbapenem-sensitive Escherichia coli 17-8 assessed as reduction in bacterial growth
Escherichia coli [25] = test: Antibacterial activity against Escherichia coli NCTC 13353 assessed as reduction in bacterial growth
Pseudomonas aeruginosa [26] = test: Antibacterial activity against Pseudomonas aeruginosa ATCC 27853 assessed as reduction in bacterial growth
Klebsiella aerogenes [27] = test: Antibacterial activity against Enterobacter aerogenes 15-7 assessed as reduction in bacterial growth
Klebsiella pneumoniae [28] = test: Antibacterial activity against ESBLs negative Carbapenem-sensitive Klebsiella pneumoniae 17-20 assessed as reduction in bacterial growth
Klebsiella aerogenes [29] = test: Antibacterial activity against Enterobacter aerogenes 17-5 assessed as reduction in bacterial growth
Escherichia coli [30] = test: Antibacterial activity against ESBLs positive Carbapenem-sensitive Escherichia coli 17-2 assessed as reduction in bacterial growth
Klebsiella pneumoniae [31] = test: Antibacterial activity against ESBLs negative Carbapenem-sensitive Klebsiella pneumoniae 17-17 assessed as reduction in bacterial growth
Klebsiella pneumoniae [32] = test: Antibacterial activity against Carbapenem- resistant Klebsiella pneumoniae KR 15-10 assessed as reduction in bacterial growth
Pseudomonas aeruginosa [33] = test: Antibacterial activity against Carbapenem- resistant Pseudomonas aeruginosa 17-8 assessed as reduction in bacterial growth
Klebsiella pneumoniae [34] = test: Antibacterial activity against Klebsiella pneumoniae ATCC BAA-1705 assessed as reduction in bacterial growth
Klebsiella pneumoniae [35] = test: Antibacterial activity against Carbapenem- sensitive Klebsiella pneumoniae 17-14 overexpressing extended spectrum beta-lactamases assessed as reduction in bacterial growth
Klebsiella pneumoniae [36] = test: Antibacterial activity against ESBLs negative Carbapenem-sensitive Klebsiella pneumonia 15-2 assessed as reduction in bacterial growth
Pseudomonas aeruginosa [37] = test: Antibacterial activity against Carbapenem- resistant Pseudomonas aeruginosa 17-5 assessed as reduction in bacterial growth
Klebsiella aerogenes [38] = test: Antibacterial activity against Enterobacter aerogenes 15-3 assessed as reduction in bacterial growth
Acinetobacter baumannii [39] = test: Antibacterial activity against Carbapenem- resistant Acinetobacter baumannii 17-11 assessed as reduction in bacterial growth
Pseudomonas aeruginosa [40] = test: Antibacterial activity against Carbapenem- sensitive Pseudomonas aeruginosa 17-21 assessed as reduction in bacterial growth
Acinetobacter baumannii [41] = test: Antibacterial activity against Carbapenem- resistant Acinetobacter baumannii 17-13 assessed as reduction in bacterial growth
Klebsiella pneumoniae [42] = test: Antibacterial activity against Carbapenem- resistant Klebsiella pneumoniae KR 15-6 assessed as reduction in bacterial growth
Pseudomonas aeruginosa [43] = test: Antibacterial activity against Carbapenem- sensitive Pseudomonas aeruginosa 17-10 assessed as reduction in bacterial growth
Klebsiella aerogenes [44] = test: Antibacterial activity against Enterobacter aerogenes 15-6 assessed as reduction in bacterial growth
Klebsiella pneumoniae [45] = test: Antibacterial activity against Carbapenem- resistant Klebsiella pneumoniae KR 15-13 assessed as reduction in bacterial growth
Escherichia coli [46] = test: Antibacterial activity against Escherichia coli ATCC 25922 assessed as reduction in bacterial growth
Klebsiella pneumoniae [47] = test: Antibacterial activity against Carbapenem- resistant Klebsiella pneumoniae KR 15-12 assessed as reduction in bacterial growth
Acinetobacter baumannii [48] = test: Antibacterial activity against Carbapenem- resistant Acinetobacter baumannii 17-10 assessed as reduction in bacterial growth
Klebsiella pneumoniae [49] = test: Antibacterial activity against Carbapenem- sensitive Klebsiella pneumoniae 17-9 overexpressing extended spectrum beta-lactamases assessed as reduction in bacterial growth
Klebsiella aerogenes [50] = test: Antibacterial activity against Enterobacter aerogenes 17-3 assessed as reduction in bacterial growth
Enterobacter cloacae [51] = test: Antibacterial activity against Enterobacter cloacae 17-10 assessed as reduction in bacterial growth
Klebsiella pneumoniae [52] = test: Antibacterial activity against Carbapenem- sensitive Klebsiella pneumoniae 17-4 overexpressing extended spectrum beta-lactamases assessed as reduction in bacterial growth
Escherichia coli [53] = test: Antibacterial activity against ESBLs positive Carbapenem-sensitive Escherichia coli 17-11 assessed as reduction in bacterial growth
Escherichia coli [54] = test: Antibacterial activity against ESBLs negative Carbapenem-sensitive Escherichia coli 17-7 assessed as reduction in bacterial growth

Measured: MIC

Nc1nc(/C(=N/OCc2cc(=O)c(O)cn2O)C(=O)N[C@@H]2C(=O)N3C(C(=O)O)=CCS[C@H]23)cs1
0.5 µg/mL: Escherichia coli [4] | Escherichia coli [46]
8 µg/mL: Klebsiella aerogenes [5] | Escherichia coli [12]
2 µg/mL: Klebsiella pneumoniae [6] | Pseudomonas aeruginosa [17] | Escherichia coli [30] | Pseudomonas aeruginosa [43] | Klebsiella aerogenes [50] | Escherichia coli [54]
4 µg/mL: Escherichia coli [15] | Pseudomonas aeruginosa [20] | Klebsiella aerogenes [27] | Klebsiella pneumoniae [35] | Pseudomonas aeruginosa [40]
0.25 µg/mL: Klebsiella pneumoniae [1] | Pseudomonas aeruginosa [7]
32 µg/mL: Enterobacter cloacae [9] | Escherichia coli [11] | Pseudomonas aeruginosa [16] | Escherichia coli [22] | Klebsiella aerogenes [23] | Pseudomonas aeruginosa [33]
1 µg/mL: Klebsiella pneumoniae [8] | Enterobacter cloacae [21] | Pseudomonas aeruginosa [26] | Enterobacter cloacae [51]
64 µg/mL: Escherichia coli [3] | Klebsiella pneumoniae [18] | Klebsiella aerogenes [29] | Klebsiella pneumoniae [34] | Pseudomonas aeruginosa [37] | Klebsiella pneumoniae [49]
16 µg/mL: Enterobacter cloacae [2] | Escherichia coli [24] | Klebsiella pneumoniae [42] | Klebsiella aerogenes [44]
0.06 µg/mL: Klebsiella pneumoniae [28] | Klebsiella pneumoniae [36]
0.125 µg/mL: Klebsiella pneumoniae [31]
≤ 0.03 µg/mL: Klebsiella pneumoniae [14]
> 64 µg/mL: all other assays above
